Assay results as given in publication PMC3443622 (2012).

Tests used:
ABCG2 [1] = biological target: T1, ABCG2 (Homo sapiens, UniProt Q9UNQ0); test: intracellular accumulation in ABCG2-transfected HEK293 cells; assay type: cell-based
T1 sequence (Q9UNQ0 1-655): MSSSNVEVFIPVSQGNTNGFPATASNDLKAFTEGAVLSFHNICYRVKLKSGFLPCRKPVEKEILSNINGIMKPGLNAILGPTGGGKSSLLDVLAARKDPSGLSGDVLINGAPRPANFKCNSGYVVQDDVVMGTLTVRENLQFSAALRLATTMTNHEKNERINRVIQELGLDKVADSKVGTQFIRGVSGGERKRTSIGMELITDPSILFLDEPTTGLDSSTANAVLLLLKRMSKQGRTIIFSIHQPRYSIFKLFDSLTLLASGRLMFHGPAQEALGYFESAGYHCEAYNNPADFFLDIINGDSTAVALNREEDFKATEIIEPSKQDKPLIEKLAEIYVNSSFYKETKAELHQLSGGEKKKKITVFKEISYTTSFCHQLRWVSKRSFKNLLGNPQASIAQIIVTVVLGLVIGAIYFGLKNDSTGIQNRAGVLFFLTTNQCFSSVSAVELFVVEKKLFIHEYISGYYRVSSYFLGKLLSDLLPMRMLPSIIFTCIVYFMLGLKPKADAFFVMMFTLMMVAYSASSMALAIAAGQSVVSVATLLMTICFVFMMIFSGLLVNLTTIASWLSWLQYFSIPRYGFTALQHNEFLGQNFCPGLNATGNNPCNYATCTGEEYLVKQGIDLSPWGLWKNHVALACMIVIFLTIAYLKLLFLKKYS

ABCG2 [2] = biological target: T1, ABCG2; assay type: cell-based

SMILES | intracellular accumulation in ABCG2-transfected HEK293 cells (ABCG2 [1]) | ATP-dependent uptake into membrane vesicles (ABCG2 [2])
O=C1c2c(O)ccc(O)c2C(=O)c2c(NCCNCCO)ccc(NCCNCCO)c21 [[3H]-mitoxantrone] | the intracellular levels of [^3H]-mitoxantrone, a known substrate of ABCG2 was measured in the presence or absence of VKJP1 or VKJP3 | 
CN(Cc1cnc2nc(N)nc(N)c2n1)c1ccc(C(=O)N[C@@H](CCC(=O)O)C(=O)O)cc1 [[3H]-methotrexate] |  | using membrane vesicles to determine the rate of ATP-dependent uptake of [^3H]-methotrexate, another substrate of ABCG2
